#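 Values below derive from 48-hour exposures of cells grown in 96-well plates, with endpoints linearly interpolated between the two concentrations bracketing the appropriate inhibition level. At the GI50, growth is halved.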 Active and inactive are the calls of the source. Cut-off read from the data, not from the text of the source: active = GI50 up to about 1.1 µM and inactive = higher.
# Tests used:
# Test in all cases: growth of human tumour cells (NCI), 48 h
# [1] = tested on: RXF 393
# [2] = tested on: HCT-116
# [3] = tested on: MDA-MB-231
# [4] = tested on: T47D
# [5] = tested on: Malme-3M
# [6] = tested on: A549
# [7] = tested on: TK-10
# [8] = tested on: UACC-257
# [9] = tested on: NCI/ADR-RES
# [10] = tested on: U-251
# [11] = tested on: SK-MEL-28
# [12] = tested on: CAKI-1
# [13] = tested on: MDA-N
# [14] = tested on: M14
# [15] = tested on: UACC-62
# [16] = tested on: RPMI-8226
# [17] = tested on: MCF7
# [18] = tested on: A498
# [19] = tested on: SF-539
# [20] = tested on: MOLT-4
Structure (SMILES),GI50 [1],GI50 [2],GI50 [3],GI50 [4],GI50 [5],GI50 [6],GI50 [7],GI50 [8],GI50 [9],GI50 [10],GI50 [11],GI50 [12],GI50 [13],GI50 [14],GI50 [15],GI50 [16],GI50 [17],GI50 [18],GI50 [19],GI50 [20]
CSc1nnnc2ccccc12,> 100 µM (inactive),> 100 µM (inactive),> 100 µM (inactive),85.1 µM (inactive),> 100 µM (inactive),> 100 µM (inactive),> 100 µM (inactive),> 100 µM (inactive),> 100 µM (inactive),> 100 µM (inactive),> 100 µM (inactive),> 100 µM (inactive),> 100 µM (inactive),> 100 µM (inactive),> 100 µM (inactive),> 100 µM (inactive),51.4 µM (inactive),> 100 µM (inactive),> 100 µM (inactive),> 100 µM (inactive)
O=C1C(=C(I)I)c2ccccc2-c2ccccc21,1.68 µM (inactive),2.32 µM (inactive),2.03 µM (inactive),2.3 µM (inactive),1.64 µM (inactive),16.3 µM (inactive),1.88 µM (inactive),2.1 µM (inactive),3.24 µM (inactive),5.45 µM (inactive),2.59 µM (inactive),2.82 µM (inactive),2 µM (inactive),3.02 µM (inactive),4.52 µM (inactive),0.53 µM (active),3.59 µM (inactive),16.6 µM (inactive),1.34 µM (inactive),0.883 µM (active)
CCCCN1C(=O)c2c(-c3sccc3N)sc(-c3sccc3N)c2C1=O,12.6 µM (inactive),21.7 µM (inactive),30.8 µM (inactive),14.2 µM (inactive),21.6 µM (inactive),24.1 µM (inactive),22.3 µM (inactive),56.1 µM (inactive),21.3 µM (inactive),12.9 µM (inactive),7.98 µM (inactive),23.8 µM (inactive),4.94 µM (inactive),8.38 µM (inactive),19.3 µM (inactive),4.47 µM (inactive),11.2 µM (inactive),23.4 µM (inactive),12.4 µM (inactive),2.8 µM (inactive)
COC(=O)C(C)(/N=C/c1ccccc1)c1ccccc1 (stereo not given),> 100 µM (inactive),> 100 µM (inactive),> 100 µM (inactive),> 100 µM (inactive),> 100 µM (inactive),> 100 µM (inactive),> 100 µM (inactive),> 100 µM (inactive),> 100 µM (inactive),> 100 µM (inactive),> 100 µM (inactive),> 100 µM (inactive),> 100 µM (inactive),> 100 µM (inactive),> 100 µM (inactive),> 100 µM (inactive),> 100 µM (inactive),> 100 µM (inactive),> 100 µM (inactive),> 100 µM (inactive)
COc1ccc(-c2nc(N)n(C)c2SSc2c(-c3ccc(OC)cc3)nc(N)n2C)cc1,2.74 µM (inactive),2.65 µM (inactive),6.78 µM (inactive),1.86 µM (inactive),9.42 µM (inactive),17.5 µM (inactive),14.5 µM (inactive),5.96 µM (inactive),14.2 µM (inactive),13 µM (inactive),3.61 µM (inactive),10.1 µM (inactive),2.63 µM (inactive),2.19 µM (inactive),3.81 µM (inactive),2.69 µM (inactive),8.51 µM (inactive),7.64 µM (inactive),4.69 µM (inactive),2.13 µM (inactive)
N=C(N)SCc1cc(Cl)cc(Cl)c1O,19.9 µM (inactive),16.3 µM (inactive),15.1 µM (inactive),20.9 µM (inactive),21.6 µM (inactive),20.7 µM (inactive),18.8 µM (inactive),16.9 µM (inactive),26.2 µM (inactive),15.7 µM (inactive),22.6 µM (inactive),18.6 µM (inactive),16.4 µM (inactive),16.6 µM (inactive),17.3 µM (inactive),19.8 µM (inactive),25.2 µM (inactive),22.3 µM (inactive),3.58 µM (inactive),24.4 µM (inactive)
CN(C)/C=N/c1c2c(nc3ccccc13)CCCC2,> 100 µM (inactive),39.1 µM (inactive),> 100 µM (inactive),66.2 µM (inactive),> 100 µM (inactive),57.9 µM (inactive),> 100 µM (inactive),71 µM (inactive),37.3 µM (inactive),> 100 µM (inactive),44.2 µM (inactive),> 100 µM (inactive),61.7 µM (inactive),> 100 µM (inactive),> 100 µM (inactive),53.3 µM (inactive),72.9 µM (inactive),49.9 µM (inactive),96.4 µM (inactive),59.8 µM (inactive)
Cc1ccc2c(c1C)CC1(Cc3c(C)ccc(C)c3C1=O)C2=O (stereo not given),> 100 µM (inactive),> 100 µM (inactive),> 100 µM (inactive),> 100 µM (inactive),> 100 µM (inactive),> 100 µM (inactive),> 100 µM (inactive),> 100 µM (inactive),> 100 µM (inactive),> 100 µM (inactive),> 100 µM (inactive),> 100 µM (inactive),> 100 µM (inactive),> 100 µM (inactive),> 100 µM (inactive),> 100 µM (inactive),> 100 µM (inactive),> 100 µM (inactive),> 100 µM (inactive),> 100 µM (inactive)
Nc1ccccc1CC(O)C(=O)O (stereo not given),> 100 µM (inactive),> 100 µM (inactive),> 100 µM (inactive),> 100 µM (inactive),> 100 µM (inactive),> 100 µM (inactive),> 100 µM (inactive),> 100 µM (inactive),> 100 µM (inactive),> 100 µM (inactive),> 100 µM (inactive),> 100 µM (inactive),> 100 µM (inactive),> 100 µM (inactive),> 100 µM (inactive),> 100 µM (inactive),> 100 µM (inactive),> 100 µM (inactive),> 100 µM (inactive),> 100 µM (inactive)
N#Cc1c(N)n(-c2nc3ccccc3s2)c(=O)c2cc([N+](=O)[O-])ccc12,7.62 µM (inactive),4.44 µM (inactive),15.6 µM (inactive),21.8 µM (inactive),18.7 µM (inactive),14.6 µM (inactive),23.6 µM (inactive),23.4 µM (inactive),6.46 µM (inactive),19.9 µM (inactive),26.7 µM (inactive),20.9 µM (inactive),25.9 µM (inactive),23.2 µM (inactive),21.3 µM (inactive),10.8 µM (inactive),7.21 µM (inactive),17.1 µM (inactive),12.4 µM (inactive),5.46 µM (inactive)
CC1(C)N=C(N)N=C(N)N1c1cccc(OCc2cccc(N)c2)c1,41.9 µM (inactive),13.3 µM (inactive),> 71.4 µM (inactive),> 100 µM (inactive),> 71.9 µM (inactive),7.21 µM (inactive),> 52.1 µM (inactive),6.14 µM (inactive),> 100 µM (inactive),14.7 µM (inactive),> 100 µM (inactive),> 100 µM (inactive),6.1 µM (inactive),58.5 µM (inactive),6.11 µM (inactive),56.1 µM (inactive),39.9 µM (inactive),> 93.1 µM (inactive),19.9 µM (inactive),8.02 µM (inactive)
C=C1C(=O)O[C@@H]2[C@@H]3O[C@@H](C[C@@H]13)[C@](C)(O)CC/C=C(\C)CCC[C@@H]2C,13.6 µM (inactive),8.13 µM (inactive),16.6 µM (inactive),18.7 µM (inactive),13.3 µM (inactive),17.4 µM (inactive),14.4 µM (inactive),12.3 µM (inactive),10.6 µM (inactive),10.5 µM (inactive),15.8 µM (inactive),13 µM (inactive),4.75 µM (inactive),12.2 µM (inactive),12.4 µM (inactive),2.82 µM (inactive),7.48 µM (inactive),13.2 µM (inactive),10.5 µM (inactive),3.35 µM (inactive)
Cc1ccc(S(=O)(=O)NCCN(CCNS(=O)(=O)c2ccc(C)cc2)S(=O)(=O)c2ccc(C)cc2)cc1,87.9 µM (inactive),> 100 µM (inactive),> 100 µM (inactive),> 100 µM (inactive),15.4 µM (inactive),25.7 µM (inactive),41.4 µM (inactive),29.1 µM (inactive),> 100 µM (inactive),28.9 µM (inactive),43.8 µM (inactive),> 100 µM (inactive),> 100 µM (inactive),> 100 µM (inactive),79.1 µM (inactive),56.2 µM (inactive),81.7 µM (inactive),> 100 µM (inactive),42.5 µM (inactive),> 100 µM (inactive)
CSc1ccc2c(cc1=O)[C@@H](NC(=O)c1ccc([N+](=O)[O-])cc1)CCc1cc(O)c(O)c(O)c1-2,> 100 µM (inactive),34.8 µM (inactive),28.2 µM (inactive),> 100 µM (inactive),> 100 µM (inactive),28.1 µM (inactive),> 100 µM (inactive),> 100 µM (inactive),17.4 µM (inactive),34.2 µM (inactive),> 100 µM (inactive),21.6 µM (inactive),22.4 µM (inactive),30.5 µM (inactive),53.3 µM (inactive),40.3 µM (inactive),31.8 µM (inactive),> 100 µM (inactive),28.8 µM (inactive),30.6 µM (inactive)

# From ChEMBL document CHEMBL1201862, “PubChem BioAssay data set” (2004)
